Results as given in patent US20230053152A1, “Novel Quercetin Redox Derivative And Use Thereof As BET Inhibitor” (Benobio Co., Ltd., priority 2019, published 2023).

Biological target: T1, BRD3 (BD1 + BD2) (Homo sapiens, UniProt Q15059)
T1 construct: on the BRD3 (BD1, BD2, BD1+BD2) protein; GST
Experiment: Binding inhibition of BRD3 (BD1+BD2), same manner as Test Example 1
Conditions: AlphaScreen, acetyl-histone H4 peptide

T1 sequence (Q15059 34-415 limits assumed): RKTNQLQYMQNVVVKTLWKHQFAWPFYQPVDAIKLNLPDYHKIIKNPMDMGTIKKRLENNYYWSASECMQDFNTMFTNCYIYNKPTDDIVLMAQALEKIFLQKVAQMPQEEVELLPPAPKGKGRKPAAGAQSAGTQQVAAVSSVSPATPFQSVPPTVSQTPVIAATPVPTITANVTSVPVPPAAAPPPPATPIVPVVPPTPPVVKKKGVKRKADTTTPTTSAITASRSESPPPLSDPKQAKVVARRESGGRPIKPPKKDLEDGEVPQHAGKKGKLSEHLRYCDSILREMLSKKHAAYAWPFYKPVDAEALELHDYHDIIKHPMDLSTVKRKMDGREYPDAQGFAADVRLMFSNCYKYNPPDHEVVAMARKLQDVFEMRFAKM

Going from O=c1c(O)c(-c2ccc3[nH]ccc3c2)oc2cc(O)cc(O)c12 [BBC0114, 3,5,7-trihydroxy-2-(1H-indol-5-yl)chromen-4-one] to O=c1c(O)c(-c2ccc3cc[nH]c3c2)oc2cc(O)cc(O)c12 [BBC0115, 3,5,7-trihydroxy-2-(1H-indol-6-yl)chromen-4-one], the IC50 rises from 51.3 µM to 86 µM (1.7-fold).

Going from O=c1c(O)c(-c2ccc(O)c(OC3COC3)c2)oc2cc(O)cc(O)c12 [BBC0303, 3,5,7-trihydroxy-2-[4-hydroxy-3-(oxetan-3-yloxy)phenyl]chromen-4-one] to O=c1c(O)c(-c2ccc(OC3COC3)c(O)c2)oc2cc(O)cc(O)c12 [BBC0301, 3,5,7-trihydroxy-2-[13-hydroxy-4-(oxetan-3-yloxy)phenyl]chromen-4-one], the IC50 falls from 95.6 µM to 29.4 µM (3.3-fold).

O=c1c(O)c(-c2ccc3[nH]cnc3c2)oc2cc(O)cc(O)c12 [BBC0109, 2-(1H-benzodiimidazol-5-yl)-3,5,7-trihydroxy-4H-chromen-4-one] and O=c1[nH]c2ccc(-c3oc4cc(O)cc(O)c4c(=O)c3O)cc2[nH]1 [BBC0110, 5-(3,5,7-trihydroxy-4-oxo-chromen-2-yl)-1,3-dihydrobenzimidazol-2-one] are within 1.5-fold of each other in IC50: 20.8 µM for the first, 20.1 µM for the second.

Biological target: T2, BRD3 (BD1) (Homo sapiens, UniProt Q15059)
T2 construct: on the BRD3 (BD1, BD2, BD1+BD2) protein; GST
T2 sequence (Q15059 34-140 limits assumed): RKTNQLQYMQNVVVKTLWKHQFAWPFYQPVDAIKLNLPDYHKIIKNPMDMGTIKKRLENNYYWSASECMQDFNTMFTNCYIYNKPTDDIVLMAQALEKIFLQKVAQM
Experiment: Binding inhibition of BRD3 (BD1), same manner as Test Example 1
Conditions: AlphaScreen, acetyl-histone H4 peptide

Compared with O=c1c(O)c(-c2ccc3c(c2)CCO3)oc2cc(O)cc(O)c12 [BBC0311, 2-(2,3-dihydrobenzofuran-5-yl)-3,5,7-trihydroxy-chromen-4-one], O=c1c(O)c(-c2ccc3c(c2)CCCO3)oc2cc(O)cc(O)c12 [BBC0309] is 4.9-fold lower in IC50: 7.2 µM for the first, 1.46 µM for the second. The second is the more potent here.

O=c1c(O)c(-c2ccc3[nH]ccc3c2)oc2cc(O)cc(O)c12 [BBC0114, 3,5,7-trihydroxy-2-(1H-indol-5-yl)chromen-4-one] and O=c1c(O)c(-c2ccc3cc[nH]c3c2)oc2cc(O)cc(O)c12 [BBC0115, 3,5,7-trihydroxy-2-(1H-indol-6-yl)chromen-4-one] are within 1.5-fold of each other in IC50: 7.98 µM for the first, 7.18 µM for the second.

Going from O=c1c(O)c(-c2ccc(O)c(OC3COC3)c2)oc2cc(O)cc(O)c12 [BBC0303, 3,5,7-trihydroxy-2-[4-hydroxy-3-(oxetan-3-yloxy)phenyl]chromen-4-one] to Cc1cc(-c2oc3cc(O)cc(O)c3c(=O)c2O)cc(OC2COC2)c1O [BBC0307], the IC50 rises from 3.18 µM to 9.29 µM (2.9-fold).

First: Cc1cc(-c2oc3cc(O)cc(O)c3c(=O)c2O)cc(O)c1OC1COC1 [BBC0305, 3,5,7-trihydroxy-2-[3-hydroxy-5-methyl-4-(oxetan-3-yloxy)phenyl]chromen-4-one]
Second: Cc1cc(-c2oc3cc(O)cc(O)c3c(=O)c2O)cc(C)c1OC1COC1 [BBC0306, 2-[3,5-dimethyl-4-(oxetan-3-yloxy)phenyl]-3,5,7-trihydroxy-chromen-4-one]
The IC50 of the first is 2.1-fold higher: 3 µM for the first, 1.41 µM for the second. The second is the more potent here.

First: COc1cc(OC)c2c(=O)[nH]c(-c3cc(C)c4c(c3)CCO4)nc2c1 [BBC0406, 5,7-dimethoxy-2-(7-methyl-2,3-dihydrobenzofuran-5-yl)-3H-quinazolin-4-one]
Second: O=c1c(O)c(-c2ccc3c(c2)OCC3)oc2cc(O)cc(O)c12 [BBC0312, 2-(2,3-dihydrobenzofuran-6-yl)-3,5,7-trihydroxy-chromen-4-one]
The IC50 of the first is 4.2-fold higher: 11.1 µM for the first, 2.64 µM for the second.

Going from O=c1c(O)c(-c2ccc3occc3c2)oc2cc(O)cc(O)c12 [BBC0310, 2-(benzofuran-5-yl)-3,5,7-trihydroxy-chromen-4-one] to O=c1c(O)c(-c2ccc3ccoc3c2)oc2cc(O)cc(O)c12 [BBC0313, 2-(benzofuran-6-yl)-3,5,7-trihydroxy-chromen-4-one], the IC50 falls from 3.26 µM to 1.9 µM (1.7-fold).

Compound O=c1[nH]c2ccc(-c3oc4cc(O)cc(O)c4c(=O)c3O)cc2o1 [BBC0113, 6-(3,5,7-trihydroxy-4-oxo-chromen-2-yl)-3H-1,3-benzoxazol-2-one] has an IC50 of 17.1 µM.

Biological target: T3, BRD2 (BD1) (Homo sapiens, UniProt P25440)
T3 construct: 100 nM GST-BRD2 (BD1, BD2, BD1+BD2)
T3 sequence (P25440 74-180 limits assumed): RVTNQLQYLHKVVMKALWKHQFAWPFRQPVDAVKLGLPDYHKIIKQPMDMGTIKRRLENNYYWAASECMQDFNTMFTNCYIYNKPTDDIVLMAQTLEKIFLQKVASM
Experiment: AlphaScreen binding inhibition of GST-BRD2 (BD1) and tetraacetylated histone H4 peptide
Conditions: AlphaScreen, acetyl-histone H4 peptide

O=c1c(O)c(-c2ccc3c(c2)CCO3)oc2cc(O)cc(O)c12 [BBC0311, 2-(2,3-dihydrobenzofuran-5-yl)-3,5,7-trihydroxy-chromen-4-one] and O=c1c(O)c(-c2ccc3c(c2)CCCO3)oc2cc(O)cc(O)c12 [BBC0309] are within 1.5-fold of each other in IC50: 5.85 µM for the first, 7.03 µM for the second.

O=c1c(O)c(-c2ccc3[nH]ccc3c2)oc2cc(O)cc(O)c12 [BBC0114, 3,5,7-trihydroxy-2-(1H-indol-5-yl)chromen-4-one] and O=c1c(O)c(-c2ccc3cc[nH]c3c2)oc2cc(O)cc(O)c12 [BBC0115, 3,5,7-trihydroxy-2-(1H-indol-6-yl)chromen-4-one] are within 1.5-fold of each other in IC50: 4.14 µM for the first, 5.24 µM for the second.

Going from O=c1c(O)c(-c2ccc(O)c(OC3COC3)c2)oc2cc(O)cc(O)c12 [BBC0303, 3,5,7-trihydroxy-2-[4-hydroxy-3-(oxetan-3-yloxy)phenyl]chromen-4-one] to O=c1c(O)c(-c2ccc(OC3COC3)c(O)c2)oc2cc(O)cc(O)c12 [BBC0301, 3,5,7-trihydroxy-2-[13-hydroxy-4-(oxetan-3-yloxy)phenyl]chromen-4-one], the IC50 rises from 8.35 µM to 16.9 µM (2-fold).

O=c1c(O)c(-c2ccc(O)c(O)c2)oc2cc(O)ccc12 [BBC0105, 2-(3,4-dihydroxyphenyl)-3,7-dihydroxy-chromen-4-one] and O=c1c(O)c(-c2ccc(O)c(O)c2)oc2cccc(O)c12 [BBC0104, 2-(3,4-dihydroxyphenyl)-3,5-dihydroxy-chromen-4-one] are within 1.5-fold of each other in IC50: 8.88 µM for the first, 8.52 µM for the second.

First: Cc1cc(-c2oc3cc(O)cc(O)c3c(=O)c2O)cc(O)c1OC1COC1 [BBC0305, 3,5,7-trihydroxy-2-[3-hydroxy-5-methyl-4-(oxetan-3-yloxy)phenyl]chromen-4-one]
Second: Cc1cc(-c2oc3cc(O)cc(O)c3c(=O)c2O)cc(C)c1OC1COC1 [BBC0306, 2-[3,5-dimethyl-4-(oxetan-3-yloxy)phenyl]-3,5,7-trihydroxy-chromen-4-one]
The IC50 of the first is 2.4-fold higher: 6.55 µM for the first, 2.71 µM for the second. The second is the more potent here.

First: O=c1c(O)c(-c2ccc3occc3c2)oc2cc(O)cc(O)c12 [BBC0310, 2-(benzofuran-5-yl)-3,5,7-trihydroxy-chromen-4-one]
Second: O=c1c(O)c(-c2ccc3ccoc3c2)oc2cc(O)cc(O)c12 [BBC0313, 2-(benzofuran-6-yl)-3,5,7-trihydroxy-chromen-4-one]
The IC50 of the first is 2.2-fold higher: 10.1 µM for the first, 4.63 µM for the second.

O=c1c(O)c(-c2ccc3[nH]cnc3c2)oc2cc(O)cc(O)c12 [BBC0109, 2-(1H-benzodiimidazol-5-yl)-3,5,7-trihydroxy-4H-chromen-4-one] and O=c1[nH]c2ccc(-c3oc4cc(O)cc(O)c4c(=O)c3O)cc2o1 [BBC0113, 6-(3,5,7-trihydroxy-4-oxo-chromen-2-yl)-3H-1,3-benzoxazol-2-one] are within 1.5-fold of each other in IC50: 8.63 µM for the first, 12.2 µM for the second.

First: O=c1c(O)c(-c2ccc(OC3COC3)cc2)oc2cc(O)cc(O)c12 [BBC0302, 3,5,7-trihydroxy-2-[4-(oxetan-3-yloxy)phenyl]chromen-4-one]
Second: Cc1cc(-c2oc3cc(O)cc(O)c3c(=O)c2O)cc(OC2COC2)c1O [BBC0307]
The IC50 of the first is 7.7-fold lower: 2.4 µM for the first, 18.5 µM for the second.

First: O=c1c(O)c(-c2ccc3c(c2)OCC3)oc2cc(O)cc(O)c12 [BBC0312, 2-(2,3-dihydrobenzofuran-6-yl)-3,5,7-trihydroxy-chromen-4-one]
Second: O=c1[nH]c2ccc(-c3oc4cc(O)cc(O)c4c(=O)c3O)cc2[nH]1 [BBC0110, 5-(3,5,7-trihydroxy-4-oxo-chromen-2-yl)-1,3-dihydrobenzimidazol-2-one]
The IC50 of the first is 2.5-fold lower: 3.69 µM for the first, 9.06 µM for the second. The first is the more potent here.

Same assay, conditions: relative to RVX-208

In the case of O=c1c(O)c(-c2ccc3[nH]cnc3c2)oc2cc(O)cc(O)c12 [BBC0109, 2-(1H-benzodiimidazol-5-yl)-3,5,7-trihydroxy-4H-chromen-4-one], the “IC50 value of BRD2 (BD1) as compared to the compound of Comparative Example 1” value is reported as “about 30%”.

Biological target: T4, BRD3 (BD2) (Homo sapiens, UniProt Q15059)
T4 construct: on the BRD3 (BD1, BD2, BD1+BD2) protein; GST
T4 sequence (Q15059 306-415 limits assumed): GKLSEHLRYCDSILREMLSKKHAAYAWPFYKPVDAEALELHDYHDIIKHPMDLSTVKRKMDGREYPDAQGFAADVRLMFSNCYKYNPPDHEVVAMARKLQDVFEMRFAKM
Experiment: Binding inhibition of BRD3 (BD2), same manner as Test Example 1
Conditions: AlphaScreen, acetyl-histone H4 peptide

Compound Cc1cc(-c2oc3cc(O)cc(O)c3c(=O)c2O)cc(C)c1OC1COC1 [BBC0306, 2-[3,5-dimethyl-4-(oxetan-3-yloxy)phenyl]-3,5,7-trihydroxy-chromen-4-one] has an IC50 of 1.34 µM.

Biological target: T5, BRD2 (BD1 + BD2) (Homo sapiens, UniProt P25440)
T5 construct: 100 nM GST-BRD2 (BD1, BD2, BD1+BD2)
T5 sequence (P25440 74-453 limits assumed): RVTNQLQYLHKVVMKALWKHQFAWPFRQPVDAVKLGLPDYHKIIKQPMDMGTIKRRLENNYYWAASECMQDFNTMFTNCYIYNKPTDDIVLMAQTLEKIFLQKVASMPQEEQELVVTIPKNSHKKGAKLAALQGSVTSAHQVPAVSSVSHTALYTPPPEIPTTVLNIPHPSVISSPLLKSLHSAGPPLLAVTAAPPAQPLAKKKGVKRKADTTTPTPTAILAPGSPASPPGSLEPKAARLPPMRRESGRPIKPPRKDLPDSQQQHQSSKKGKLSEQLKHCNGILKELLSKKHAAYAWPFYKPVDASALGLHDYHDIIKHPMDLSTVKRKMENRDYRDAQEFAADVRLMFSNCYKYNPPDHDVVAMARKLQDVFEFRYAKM
Experiment: AlphaScreen binding inhibition of GST-BRD2 (BD1+BD2) and tetraacetylated histone H4 peptide
Conditions: AlphaScreen, acetyl-histone H4 peptide

O=c1c(O)c(-c2ccc3[nH]cnc3c2)oc2cc(O)cc(O)c12 [BBC0109, 2-(1H-benzodiimidazol-5-yl)-3,5,7-trihydroxy-4H-chromen-4-one] gave an IC50 of 9.7 µM.

Same assay, conditions: relative to RVX-208

In the case of O=c1c(O)c(-c2ccc3[nH]cnc3c2)oc2cc(O)cc(O)c12 [BBC0109, 2-(1H-benzodiimidazol-5-yl)-3,5,7-trihydroxy-4H-chromen-4-one], the “IC50 value of BRD2 (BD1+BD2) as compared to the compound of Comparative Example 1” value is reported as “about 30%”.

Biological target: T6, BRD4 (BD1 + BD2) (Homo sapiens, UniProt O60885)
T6 construct: on the BRD4 (BD1, BD2, BD1+BD2) protein; GST
Experiment: Binding inhibition of BRD4 (BD1+BD2), same manner as Test Example 1
Conditions: AlphaScreen, acetyl-histone H4 peptide

COc1cc(OC)c2c(=O)[nH]c(-c3cc(C)c(OCCO)c(C)c3)cc2c1 [BBC0204, reference compound] and COc1cc(OC)c2[nH]c(-c3cc(C)c(OCCO)c(C)c3)nc2c1 [BBC0206, reference compound] cannot be ordered by IC50: 97.2 µM for the first, greater than 20 µM for the second.

Compared with O=c1c(O)c(-c2ccc3[nH]cnc3c2)oc2cc(O)cc(O)c12 [BBC0109, 2-(1H-benzodiimidazol-5-yl)-3,5,7-trihydroxy-4H-chromen-4-one], O=c1[nH]c2ccc(-c3oc4cc(O)cc(O)c4c(=O)c3O)cc2[nH]1 [BBC0110, 5-(3,5,7-trihydroxy-4-oxo-chromen-2-yl)-1,3-dihydrobenzimidazol-2-one] is 2.5-fold higher in IC50: 15.6 µM for the first, 38.6 µM for the second. The first is the more potent here.

Compared with O=c1c(O)c(-c2ccc(OC3COC3)c(O)c2)oc2cc(O)cc(O)c12 [BBC0301, 3,5,7-trihydroxy-2-[13-hydroxy-4-(oxetan-3-yloxy)phenyl]chromen-4-one], Cc1cc(-c2oc3cc(O)cc(O)c3c(=O)c2O)cc(OC2COC2)c1O [BBC0307] is 2.9-fold higher in IC50: 30.3 µM for the first, 87.3 µM for the second.

Biological target: T7, BRD4 (BD1) (Homo sapiens, UniProt O60885)
T7 construct: on the BRD4 (BD1, BD2, BD1+BD2) protein; GST
Experiment: Binding inhibition of BRD4 (BD1), same manner as Test Example 1
Conditions: AlphaScreen, acetyl-histone H4 peptide

Going from COc1cc(OC)c2c(=O)[nH]c(-c3cc(C)c(OCCO)c(C)c3)cc2c1 [BBC0204, reference compound] to COc1cc(OC)c2[nH]c(-c3cc(C)c(OCCO)c(C)c3)nc2c1 [BBC0206, reference compound], the IC50 rises from 35.1 µM to greater than 50 µM.

With O=c1[nH]c2ccc(-c3oc4cc(O)cc(O)c4c(=O)c3O)cc2[nH]1 [BBC0110, 5-(3,5,7-trihydroxy-4-oxo-chromen-2-yl)-1,3-dihydrobenzimidazol-2-one] the IC50 was 15.5 µM.

Biological target: T8, BRD2 (BD2) (Homo sapiens, UniProt P25440)
T8 construct: 100 nM GST-BRD2 (BD1, BD2, BD1+BD2)
T8 sequence (P25440 344-453 limits assumed): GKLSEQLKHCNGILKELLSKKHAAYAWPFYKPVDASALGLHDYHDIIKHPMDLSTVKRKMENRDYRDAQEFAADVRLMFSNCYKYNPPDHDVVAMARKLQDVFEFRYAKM
Experiment: AlphaScreen binding inhibition of GST-BRD2 (BD2) and tetraacetylated histone H4 peptide
Conditions: acetyl-histone H4 peptide

Going from O=c1c(O)c(-c2ccc3c(c2)CCO3)oc2cc(O)cc(O)c12 [BBC0311, 2-(2,3-dihydrobenzofuran-5-yl)-3,5,7-trihydroxy-chromen-4-one] to O=c1c(O)c(-c2ccc3ccoc3c2)oc2cc(O)cc(O)c12 [BBC0313, 2-(benzofuran-6-yl)-3,5,7-trihydroxy-chromen-4-one], the IC50 falls from 3.79 µM to 0.499 µM (7.6-fold).

In the case of O=c1[nH]c2ccc(-c3oc4cc(O)cc(O)c4c(=O)c3O)cc2o1 [BBC0113, 6-(3,5,7-trihydroxy-4-oxo-chromen-2-yl)-3H-1,3-benzoxazol-2-one], the IC50 is reported as 5.11 µM.
